# Tests used:
# Format in all cases: cell-based, human
# CaSki cells [1] = experiment: Cell proliferation assay (MTS), CaSki; conditions: 1-20 μM, 24 hours
# Description: The effect of Br-ORM on CaSki and SiHa cells proliferation was performed using the MTS assay. Briefly, cells were seeded at a density of 5×10^3 cells per well in 96 well plate and allowed to stand overnight at 37° C. and 5% CO2 incubator. Next day, cells were treated with different concentrations of Br-ORM (1, 5, 10 and 20 μM). DMSO was used as a vehicle for the treatment of control cells. Twenty four hours post-treatment, 20 μL of MTS reagent (5 mg/mL) was added in each well and further incubated the plate for 2 hours in a CO2 incubator. Absorbance was taken after 2 hours at […] (SpectraMax M2 spectrophotometer, Molecular Devices, Sunnyvale, CA, USA). The experiment was performed in triplicates. Results were represented as percent viability with respect to the control group. […]
# FIG. 13. […] Cell viability was assessed by MTS assay. […] Bar graphs indicating quantification of colony formation in CaSki (i), and SiHa (ii) cells of cervical cancer with respect to vehicle control. […] Briefly, cervical cancer cells were treated with Br-ORM (10 μM) for 24 hours and the apoptosis inducing effect of Br-ORM was analyzed by Annexin V staining. […] The equal loading of protein in each lane was determined by probing the blots with β-actin antibody (FIG. 13F). […] Br-ORM arrests cell cycle in G1/S phase as determined by flow cytometry. […]
# [2] = test system: cleaved PARP in SiHa cells; experiment: Western blot for cleavage of PARP, SiHa; conditions: 24 hours
# Description: The effect of Br-ORM on protein expression in cervical cancer cells were determined by Western blot analysis by using specific antibodies.
# It was observed that Br-ORM exerts potent growth inhibitory effects, so the effect of Br-ORM on apoptosis induction was further examined. Cervical cancer cells were treated with Br-ORM (10 μM) for 24 hours and the apoptosis inducing effect of Br-ORM was analyzed by Annexin V staining and Western blot analysis for cleavage in PARP protein.
# FIG. 13. Br-ORM decreases proliferation and colony formation of cervical cancer cells. FIG. 13A. Effect of Br-ORM on cell viability of CaSki cells (i) and SiHa cells (ii). Briefly, cervical cancer cells were seeded (2500) in each well of 96-well plate and after overnight incubation; cells were treated with indicated concentrations of Br-ORM for 24 hours. Cell viability was assessed by MTS assay. […] Bar graphs indicating quantification of colony formation in CaSki (i), and SiHa (ii) cells of cervical cancer with respect to vehicle control. […] Briefly, cervical cancer cells were treated with Br-ORM (10 μM) for 24 hours and the apoptosis inducing effect of Br-ORM was analyzed by Annexin V staining. […] The equal loading of protein in each lane was determined by probing the blots with β-actin antibody (FIG. 13F). […] Br-ORM arrests cell cycle in G1/S phase as determined by flow cytometry. […]
# CaSki cells [3] = experiment: Cell invasion assay (Matrigel / Boyden chamber), CaSki; conditions: 24 hours
# Description: FIGS. 8A and 8B show the effect of ORM-Br on invasion of CaSki (FIG. 8A) and SiHa (FIG. 8B) cell lines in Boyden chamber and xCELLigence assay. The images represent the invaded cells of control and ORM-Br-treated CaSki and SiHa cells as determined by Boyden Chamber kit. The magnification was at 20 for the images of FIGS. 8A and 8B.
# Cell invasion assay was performed using BD Biocoat Matrigel Invasion Chambers (BD Biosciences, San Jose, CA, USA), as has been described in the art. Cells were treated with Br-ORM followed by incubation for 24 hours. Cells were fixed using methanol and were stained with crystal violet. […]
# FIG. 14. […] Effect of Br-ORM on cell migration of cervical cancer cells as determined by agarose bead (FIG. 14A), scratch wound healing (FIG. 14B), and Boyden chamber assay (FIG. 14C). […] Closure of wound was determined and photographed using phase contrast microscopy. […] Bar graph represent the quantification of migrated CaSki cells of control and Br-ORM treated groups (FIG. 14C(ii)). […] Effect of Br-ORM treatment on invasion of CaSki cells as determined by a commercially available kit (BD Biosciences) as described in materials and methods. In brief, 24 hours post-treatment of Br-ORM, invaded cells were fixed, stained and counted. […] Bar graph represent the quantification of invaded CaSki cells of control and Br-ORM treated groups (FIG. 14D(ii)). […]
smiles,measurement,setting,value
COc1ccc2c(c1)OC(C)(C)C(c1ccc(Br)cc1)C2c1ccc(OCCN2CCCC2)cc1 (centres unmarked) [ORM-Br],cell viability / growth,CaSki cells [1],inhibits the growth
same,cell viability / growth,CaSki cells [1]; listed as Br-ORM,dose dependently inhibited the cell viability
same,protein levels of cleaved PARP,[2],dose dependently enhanced the protein levels of cleaved PARP
same,cell invasion,CaSki cells [3],inhibits the invasion
same,cell invasion,CaSki cells [3]; listed as Br-ORM,effectively inhibited invasion

# Reference: patent US20240208950A1, “COMPOSITIONS AND METHODS FOR TREATMENT OF CERVICAL AND OVARIAN CANCER” (SOUTH DAKOTA BOARD OF REGENTS, priority 2021, published 2024)
